Test results: patent US5534492A, “Muramyl peptide for the treatment of toxicity” (Peptech (UK) Limited, priority 1992, dated 1996)

Experiments:
outbred white mice = assay: Duration of ethanol narcosis in outbred white mice; assay type: in vivo; details: GMDP at least 0.01 mg/kg IP, three daily injections; ethanol 4.5 g/kg IP; vs control
Text: (§1) Outbred white mice were given three intraperitoneal injections of GMDP at daily intervals and challenged with ethanol (4.5 g/kg IP) after the last GMDP injection. Narcosis was defined as the time in the lateral position ("leglessness"). […] Each group contained 10 to 12 mice.
In this example, the influence of GMDPA and various GMDP or GMDPA analogues on ethanol narcosis was studied. The procedure of Example 1 was followed, except that instead of the GMDP, one of the following compounds was administered IP at 1 mg/kg daily for three days: […]

[1] = Placebo-controlled trial in colorectal surgery patients, blood bilirubin; assay type: in vivo, human; details: GMDP 1, 2 or 3 mg per day for 10 days
Text: Over 200 patients were enrolled in a placebo-controlled trial to determine the effect of GMDP on the outcome of colorectal surgery. Many of these patients had undergone previous chemotherapy for the treatment of cancers, often over substantial periods of time, with the result that liver damage had occurred.
This was evidenced by such indicators as elevated bilirubin in their blood, resulting from the reduced ability of the liver to function as a detoxification organ. […] GMDP or placebo were administered for 10 days, and bilirubin levels in the blood were measured before and after the course of treatment. Bilirubin data were obtained from 182 of the subjects. It is clear that the average blood level of bilirubin decreased in the GMDP-treated group and the two asterisks indicate that this decrease was statistically highly significant (p=0.002). […] Blood levels of bilirubin before the trial were not different in the two groups.

outbred mice = assay: Duration of acetaldehyde narcosis in outbred mice; assay type: in vivo; details: GMDP IP, three daily injections; acetaldehyde 450 mg/kg IP
Experimental: as §1
The procedure of Example 1 was followed but modified to study the duration of acetaldehyde narcosis. Acetaldehyde, at 450 mg/kg was administered IP after the last GMDP dose, instead of the ethanol.

mice [2] = assay: Acute toxicity, LD50 test in mice; assay type: in vivo
Text: This compound (Compound II in U.S. Pat. No. 4,395,399), also known as glycopin, has already undergone preclinical toxicity testing and pharmacokinetic investigations required for licensing for clinical use in the USSR. The acute toxicity in mice, measured by the LD50 test is 7 g/kg.

C57BL/6 mice = assay: Duration of hexenal narcosis in C57BL/6 mice; assay type: in vivo
Text: Cytochrome P450 -dependent monooxygenase activity induction in accordance with pharmacological testing of HEXENAL™ narcosis duration in mice.
In addition to the experiments, which have shown GMDP ability to interact directly with cytochrome P450 molecule as a substrate (in vitro) and to induce cytochrome P450 system in liver microsomes (GMDP effect in vivo), experiments for testing cytochrome P450 system according to the duration of HEXENAL™ narcosis in mice have been carried out. It is well known that HEXENAL™ is a substrate of cytochrome P450, and the duration of its narcotic effect clearly correlates with the rate of its oxidation in the liver cytochrome P450 system. The method of Example 6 was repeated, but instead of aniline and benzo(a)pyrene, the ability of the microsomes to metabolise HEXENAL™ was tested. The experiments performed have shown that GMDP in small doses is capable of inducing cytochrome P450 -dependent oxidation of HEXENAL™ (Tables 3 and 4).

Pyrogenicity = assay: Pyrogenicity
Text: Pyrogenicity is a problem which has caused difficulties for the exploitation of certain muramyl dipeptides. Pyrogenicity may be attenuated by appropriate formulations (see, for example, the liposomal formulations of U.S. Pat. Nos. 4,522,811 and 4,684,625), but in general it will be preferable to choose, for use in the present invention, a muramyl dipeptide which has low intrinsic pyrogenicity. […] Such an analogue is available, and is N-acetyl-glucosaminyl-N-acetyl-muramyl-L-alanyl-D-glutamic acid (GMDP-A), which is Compound III in U.S. Pat. No. 4,395,399, and whose structure is as follows: [drawing 5]

[3] = system: mice liver cytochrome P-450 system; assay: Indices of activity of mice liver cytochrome P-450 system after GMDP injections; assay type: in vivo
Experimental: The experiments were performed on white male mice with a mass of […]. GMDP was dissolved in isotonic solution of sodium chloride and administered by means of intraperitoneal injection once a day for 3 days, with a dose of 20 mg/kg. A corresponding volume of the solvent was administered to control animals. Each group (test and control) consisted of 8 to 10 mice. Twenty-four hours after the last injection of the substances under test (test) and the solvent (control), the animals were killed, the liver was removed and its weight was determined. This was followed by the isolation of the microsomal fraction by means of differential centrifugation. The quality protein in it was determined according to the method of Lowry et al (Lowry et al, J. Biol. Chem., 193, 265-275 (1951)). Bovine serum albumin was used in the construction of calibrating plot. The content of cytochrome P450 and B5 in the liver microsomal fraction was determined by spectrophotometric method with the help of a `Hitachi-556` spectrophotometer. The rate of oxidation of aniline (p-hydroxylation) in microsomes in the presence of NADPH was determined spectrophotometrically on the basis of p-aminophenol which has formed already. The rate of oxidation of benzo(a)pyrene (BP) in liver microsomes was determined according to the intensity of fluorescence of the forming 3-oxibenzo (a) pyrene `Baird Nova` fluorimeter. The rate of hydroxylation of aniline and BP in microsomes was expressed in nmol of metabolites/nmol of cytochrome P450 per 1 minute, or in nmol of metabolites/mg of microsome protein per 1 minute. Statistical processing of the obtained data was performed with the use of Student's t-test.

[4] = system: liver microsomal cytochrome P450; assay: Optical difference spectrum with liver microsomal cytochrome P450; assay type: binding; details: oxidised microsomes from phenobarbital-induced rat liver
Text: The cytochrome P450 system is a system by means of which toxins are metabolised in the liver. A wide variety of substances combine with oxidised liver microsomal cytochrome P450 bringing about a change in absorbency. It has been shown that various drugs, substrates and inhibitors react with microsomal cytochrome P450 to give three characteristic types of spectral change.
The three types of spectral changes are as follows.
i) For substances such as ethylmorphine or hexobarbital, the minimum difference in the spectrum occurs at about 420 nm and the maximum at about 385-390 nm. These substances are designated type I compounds).
ii) For compounds such as aniline or nicotinamide, the minimum difference in the spectrum occurs at about 390-410 nm and the maximum at about 430 nm. These substances are designated type II compounds.
iii) Some compounds are apparently type II substrates but actually act by displacing endogenous type I substrates when added to microsomes. These compounds are designated reverse type I substrates.
It has been shown that, for a number of substrates, the apparent binding constants calculated from spectral changes are related to the actual binding of type I substrates at the active site.
Ks (spectral association constant) was 0.1 mM. This is Ks for the well known cytochrome P450 HEXENAL™.

Water solubility = assay type: physicochemical
Text: GMDP also has the particular advantage, shared with the other glucosaminyl-muramyl peptides of U.S. Pat. No. 4,395,399, of being water soluble: this is a real benefit for parenteral administration. The choice of this muramyl dipeptide which in many ways is contrary to the trend in the art. Both muroctasin and MTP-PE have been specifically synthesised to incorporate a lipophilic group, and many non-lipophile-substituted muramyl dipeptides have been formulated in lipophilic preparations such as liposomes (as in U.S. Pat. No. 4,522,811 and U.S. Pat. No. 4,684,625), purportedly to enhance the activity of the muramyl dipeptide. In the present invention, water solubility is preferred.

[5] = system: cells of the reticulo-endothelial system; details: cited from earlier work
mice [6] = assay: Duration of HEXENAL (hexobarbital) narcosis in mice, oral GMDP; assay type: in vivo; details: for Effect % (M ± m): vs control
Experimental: This example studies the effect of GMDP on the duration of narcosis induced by hexobarbital.
GMDP was administered orally to mice 15 minutes before the intraperitoneal injection of hexobarbital (HEXENAL™) at 50 mg/kg. The duration of narcosis (preservation of the lateral position) was recorded.

inbred C57 B1/6 mice = assay: Acetaldehyde narcosis in inbred C57 B1/6 mice; assay type: in vivo; details: GMDPA IP daily for three days
Experimental: as §1
This example studies the influence of GMDPA on acetaldehyde narcosis in inbred C57 B1/6 mice. The procedure of Example 1 was generally followed except that GMDPA was injected IP daily for three days and acetaldehyde was given 1, 4, 8 or 12 days later.

[7] = GMDP 0.01 mg/kg × 3 days i.p, hexenal 50 mg/kg 24 hours after GMDP injections
[8] = GMDP i.p injection simultaneously with hexenal injection, 50 mg/kg
[9] = GMDP i.p. injection 10 min after hexenal injection, 50 mg/kg
[10] = GMDP i.p. injection 30 min before hexenal injection, 50 mg/kg
[11] = GMDP i.p. injection 60 min before hexenal injection, 50 mg/kg
[12] = GMDP per os 15 min before i.p injection of hexenal 50 mg/kg
[13] = 24 hours after GMDP 20 mg/kg × 3 days i.p.
[14] = GMDP relative to control, 20 mg/kg × 3 days
[15] = liver microsomes, 24 hours after GMDP 20 mg/kg × 3 days i.p.
[16] = GMDP 0.01 mg/kg orally 15 min before hexobarbital 50 mg/kg i.p.
[17] = GMDP 0.1 mg/kg orally 15 min before hexobarbital 50 mg/kg i.p.
[18] = GMDP 1.0 mg/kg orally 15 min before hexobarbital 50 mg/kg i.p.

CC(=O)N[C@H]1[C@H](O[C@H]2[C@H](O[C@H](C)C(=O)N[C@@H](C)C(=O)N[C@H](CCC(=O)O)C(N)=O)[C@@H](NC(C)=O)C(O)O[C@@H]2CO)O[C@H](CO)[C@@H](O)[C@@H]1O (stereo partly drawn) [GMDP, N-acetyl-glucosaminyl-N-acetyl-muramyl-L-alanyl-D-isoglutamine]
duration of ethanol narcosis (outbred white mice): much shorter duration | blood level of bilirubin after treatment vs placebo [1]: significantly different from bilirubin levels after placebo treatment | average blood level of bilirubin, after vs before treatment ([1]; p=0.002): decreased | duration of acetaldehyde narcosis (outbred mice): markedly shortened the duration of narcosis | acute toxicity in mice, LD50 (mice [2]): 7000 mg/kg | Narcosis duration min. (M ± m) (C57BL/6 mice; [7]): 21.7 ± 5.2 min | Narcotic effect in % from control (C57BL/6 mice; [7]): 45% | Narcosis duration min. (M ± m) (C57BL/6 mice; [8]): 25.7 ± 4.9 min | Narcotic effect in % from control (C57BL/6 mice; [8]): 85% | Narcosis duration min. (M ± m) (C57BL/6 mice; [9]): 41.2 ± 3.3 min | Narcotic effect in % from control (C57BL/6 mice; [9]): 95% | Narcosis duration min. (M ± m) (C57BL/6 mice; [10]): 18.4 ± 1.5 min | Narcotic effect in % from control (C57BL/6 mice; [10]): 61% | Narcosis duration min. (M ± m) (C57BL/6 mice; [11]): 30.9 ± 5.7 min | Narcotic effect in % from control (C57BL/6 mice; [11]): 100% | Narcosis duration min. (M ± m) (C57BL/6 mice; [12]): 31.3 ± 4.9 min | Narcotic effect in % from control (C57BL/6 mice; [12]): 57% | pyrogenicity (Pyrogenicity): sufficiently low not to have prevented its clinical evaluation | Liver weight mg/g of the animal weight [3, 13]: 80.0 mg/g of the animal weight | Microsomal protein mg/g of liver weight [3, 13]: 5.8 ± 0.31 mg/g of liver weight | Aniline-hydroxylase (per mg of protein), % [3, 14]: 194% | Aniline-hydroxylase (per nmol of cyt. P-450), % [3, 14]: 178% | BP-hydroxylase (per mg of protein), % [3, 14]: 171% | BP-hydroxylase (per nmol of cyt P-450), % [3, 14]: 218% | Cytochrome P-450, % [3, 14]: 134% | Microsomal protein, % [3, 14]: 129% | Cytochrome P-450 nmol/mg of protein ([3]; liver microsomal fraction, 24 hours after GMDP 20 mg/kg × 3 days i.p.): 0.87 ± 0.06 nmol/mg of protein | Aniline-hydroxylase nmol/mg of protein per 1 minute [3, 15]: 1.20 ± 0.1 nmol/mg of protein per 1 minut | Aniline-hydroxylase nmol/nmol of cyt. P-450 per 1 minute [3, 15]: 1.05 ± 0.01 nmol/nmol of cyt. P-450 per 1 | BP-hydroxylase nmol/mg of protein per 1 minute [3, 15]: 0.6 ± 0.04 nmol/mg of protein per 1 minut | BP-hydroxylase nmol/nmol of cyt P-450 per 1 minute [3, 15]: 0.87 ± 0.09 nmol/nmol of cyt P-450 per 1 m | Ks (spectral association constant) [4]: 0.1 mM | type of optical difference spectrum [4]: type I optical difference spectrum | water solubility (Water solubility): water soluble | synthesis of the superoxide anion (O2^-) [5]: stimulates the synthesis of the superoxide anion | Narcosis duration Min (M ± m) (mice [6]; [16]): 15.48 ± 4.93 min | Effect % (M ± m) (mice [6]; [16]): -74.01 ± 8.15% | Narcosis duration Min (M ± m) (mice [6]; [17]): 8.72 ± 2.98 min | Effect % (M ± m) (mice [6]; [17]): -85.59 ± 4.92% | Narcosis duration Min (M ± m) (mice [6]; [18]): 18.47 ± 4.82 min | Effect % (M ± m) (mice [6]; [18]): -69.47 ± 7.96% | shortening of the duration of hexobarbital-induced narcosis (mice [6]; average over all the doses investigated): ~4 fold

N-acetyl-glucosaminyl-N-acetyl-muramyl-L-alanyl-D-glutamic acid [GMDPA]
inhibition of acetaldehyde narcosis (inbred C57 B1/6 mice; acetaldehyde given 1, 4 or 8 days later): inhibition of narcosis occurred | inhibition of acetaldehyde narcosis (inbred C57 B1/6 mice; acetaldehyde given 12 days later): not 12 | pyrogenicity (Pyrogenicity): substantially non-pyrogenic
